The test system of one experiment is Acinetobacter baumannii. Put plainly: Antibacterial activity against Acinetobacter baumannii AG309. It counts as functional.
Another experiment has as its system Pseudomonas aeruginosa. Kind of experiment: Antibacterial activity against Pseudomonas aeruginosa AG220. It is filed as functional.
A further experiment has as its system Klebsiella pneumoniae. Put plainly: Antibacterial activity against Klebsiella pneumoniae AG215. It is filed as functional.
A further experiment deals with Escherichia coli. Kind of experiment: Antibacterial activity against Escherichia coli AG001. It is filed as functional.
A short description of experiment [1]: Antiribosomal activity against humanized bacterial ribosome incorporating A1555G mutant of human mitochondrial ribosome assessed as inhibition of luciferase production by cell-free translation assay.
Experiment [2] is described as follows: Selectivity ratio of IC50 for antiribosomal activity against humanized bacterial ribosome incorporating A1555G mutant of human mitochondrial ribosome to IC50 for antiribosomal activity against wild type bacterial ribosomes.
The test system of the next experiment is Staphylococcus aureus. Kind of experiment: Antibacterial activity against Methicillin-resistant Staphylococcus aureus AG038. It counts as functional.
The target of the next experiment is Bacterial 70S ribosome. Put plainly: Antiribosomal activity against wild type bacterial ribosomes assessed as inhibition of luciferase production by cell-free translation assay. It counts as subcellular, Bacteria.
The nature of experiment [3]: Antiribosomal activity against humanized bacterial ribosome incorporating human cytoplasmic ribosome Cyt14 assessed as inhibition of luciferase production by cell-free translation assay.
Experiment [4] in a line: Antiribosomal activity against humanized bacterial ribosome incorporating complete decoding A site from human mitochondrial ribosome Mit13 assessed as inhibition of luciferase production by cell-free translation assay.
The next experiment concerns Enterobacter cloacae. Put plainly: Antibacterial activity against Enterobacter cloacae AG290. It is filed as functional.
Experiment [5] is described as follows: Selectivity ratio of IC50 for antiribosomal activity against humanized bacterial ribosome incorporating human cytoplasmic ribosome Cyt14 to IC50 for antiribosomal activity against wild type bacterial ribosomes.
Experiment [6] can be described thus: Selectivity ratio of IC50 for antiribosomal activity against humanized bacterial ribosome incorporating complete decoding A site from human mitochondrial ribosome Mit13 to IC50 for antiribosomal activity against wild type bacterial ribosomes.

Values after ≈ are worked out from the molar mass of the structure shown. A value given as a limit tells only on which side of the number the result lay.

Consider `CN[C@@H]1[C@@H](O[C@H]2O[C@H](CO)[C@@H](N)[C@H](O)[C@H]2O)O[C@H]2C[C@@H](N)[C@@H](O[C@H]3[C@H](O)[C@@H](O)[C@H](N)C[C@@H]3N)O[C@@H]2[C@@H]1O`, for which the Activity was 4 µg/mL in the experiment with Acinetobacter baumannii; 4 µg/mL in the experiment with Pseudomonas aeruginosa; 1 to 2 µg/mL with Klebsiella pneumoniae; 4 µg/mL in the experiment with Escherichia coli; 4 µg/mL in the experiment with Staphylococcus aureus; 2 to 4 µg/mL in the experiment on Enterobacter cloacae. Further, the IC50 in experiment [1] was 40 µg/mL (≈ 74.1 µM); on Bacterial 70S ribosome, 145 nM; in experiment [3] it was 69 µg/mL (≈ 128 µM); in experiment [4] it was 67 µg/mL (≈ 124 µM). Besides, the Ratio IC50 in experiment [2] was 513; in experiment [5] it was 885; in [6], 859.

Turning to `CN[C@@H]1[C@@H](O[C@H]2O[C@H](CO)[C@@H](O)[C@H](O)[C@H]2O)O[C@H]2C[C@@H](N)[C@@H](O[C@H]3[C@H](O)[C@@H](O)[C@H](N)C[C@@H]3N)O[C@@H]2[C@@H]1O`, the Activity in the experiment with Acinetobacter baumannii was 8 µg/mL; in the experiment on Pseudomonas aeruginosa, 8 to 16 µg/mL; with Klebsiella pneumoniae, 4 µg/mL; with Escherichia coli, 8 to 16 µg/mL; in the experiment on Staphylococcus aureus, 32 µg/mL; in the experiment with Enterobacter cloacae it was 4 to 8 µg/mL. Moreover, the IC50 in experiment [1] was 307 µg/mL (≈ 568 µM); on Bacterial 70S ribosome, 296 nM; in experiment [3], 437 µg/mL (≈ 808 µM); in [4], > 500 µg/mL. The Ratio IC50 in [2] was 1920; in [5], 2730; in experiment [6] it was > 3120.

Broadly, the IC50 is the midpoint of a concentration-inhibition curve.

Source of the values: ChEMBL document CHEMBL4480383, “Synthesis of saccharocin from apramycin and evaluation of its ribosomal selectivity” (Medchemcomm, 2019).
